# Tests used:
# Assay type in all cases: cell-based
# [1] = tested on: MV4-11 cells; test: MV4-11 cellular proliferative assay, Assay Format B (CTG 2.0, 168 h); conditions: Homo sapiens, Assay format B, 168 h, read-out: IC50 (MV4-11 cellular proliferative assay)
# Protocol: MV4-11 cells at a confluency of ~50-80% was used for cell growth assay. 600 cells/well in a 384-well opaque cell culture plate (6007680; Perkin Elmer) were seeded in 40 μL of complete medium (IMDM+10% FBS+1× Penicillin-Streptomycin). Cells were incubated overnight at 37° C., 5% CO2. 10 mM DMSO stocks were prepared, cells were treated with 10 concentrations of test compounds starting from 1 uM or 100 nM, 3-fold dilution in 10 uL (5× concentration) of complete medium. Final DMSO concentration was 0.3%. Culture plates were centrifuged at 40×g, 30s. Cells were incubated with compounds for 168 h (7 days). After 7 days, 20 uL CTG 2.0 reagent (G9242; Promega) was added per well and luminescence reading was taken in Envision Xcite 2105 multimode plate reader. Data was analyzed in GraphPad Prism 10.0 and data was shown as % viability with respect to DMSO control and dose-response curves were generated using four parameter logistic regression. Assay quality was determined by z-factor calculation using positive and negative controls.
# [2] = molecular target: T1, MLLT1 (Homo sapiens, UniProt Q03111); test: MLLT1 degradation assay in MV4-11 cells (JESS, 24 h); set-up: endogenous in cells; host or cells: MV4-11 (ATCC CRL-9591); conditions: vs DMSO control
# T1 sequence (Q03111 1-559): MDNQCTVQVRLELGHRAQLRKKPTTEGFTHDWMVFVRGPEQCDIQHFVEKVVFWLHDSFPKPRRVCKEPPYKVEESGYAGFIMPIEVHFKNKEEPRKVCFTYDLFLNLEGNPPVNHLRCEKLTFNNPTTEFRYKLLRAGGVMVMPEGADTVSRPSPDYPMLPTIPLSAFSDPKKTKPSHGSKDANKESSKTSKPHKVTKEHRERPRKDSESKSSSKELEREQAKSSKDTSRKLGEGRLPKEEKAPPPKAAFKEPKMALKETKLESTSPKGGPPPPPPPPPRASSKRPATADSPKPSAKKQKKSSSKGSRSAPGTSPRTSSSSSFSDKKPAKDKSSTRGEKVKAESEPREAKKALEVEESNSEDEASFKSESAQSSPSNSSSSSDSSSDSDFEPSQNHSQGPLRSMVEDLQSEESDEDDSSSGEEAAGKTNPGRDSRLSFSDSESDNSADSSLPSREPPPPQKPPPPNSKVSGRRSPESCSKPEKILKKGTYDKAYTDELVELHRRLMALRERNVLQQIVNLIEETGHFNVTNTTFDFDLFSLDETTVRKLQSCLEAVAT
# Procedure, shortened: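 MV4-11 cells treated at 1000, 100 and 10 nM (0.1% DMSO) for 24 h at 37° C; lysates (4 ug protein) run on JESS capillary immunoassay with MLLT1 and GAPDH antibodies. Peak areas give % degradation versus DMSO, binned A (≥75%) to D (<25%).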
# [3] = tested on: MV4-11 cells; test: MV4-11 cellular proliferative assay, Assay Format A (CellTiter-Glo, 120 h); conditions: Homo sapiens, Assay format A, 120 h, read-out: IC50 (MV4-11 cellular proliferative assay)
# Procedure, shortened: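 MV4-11 cells seeded at 50 cells/well and exposed for 120 h to compound (10 semi-log dilutions, top 30 μM) or DMSO. Viability by CellTiter-Glo luminescence, normalised to DMSO and reference-compound wells; AC50 from Hill fit.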
compound,measurement,setting,value
"Cc1nn(CCCCCCCC#Cc2cccc3c2CN(C2CCC(=O)NC2=O)C3=O)c2cc(C(=O)Nc3cc4[nH]c([C@H]5CCCN5C)cc4cn3)c(F)cc12 (stereo partly drawn) [Example 58, 1-(9-(2-(2,6-dioxopiperidin-3-yl)-1-oxoisoindolin-4-yl)non-8-yn-1-yl)-5-fluoro-3-methyl-N-(2-((R)-1-methylpyrrolidin-2-yl)-1H-pyrrolo[3,2-c]pyridin-6-yl)-1H-indazole-6-carboxamide]",IC50,[1],< 0.1 µM
same,MLLT1% Degradation @ 0.01 μM,[2],A (Category A: A≥75% degradation)
same,MLLT1% Degradation @ 0.1 μM,[2],A (Category A: A≥75% degradation)
same,MLLT1% Degradation @ 1 μM,[2],A (Category A: A≥75% degradation)
"Cc1nn(C2CCN(CC3CCN(c4cc5c(cc4F)C(=O)N(C4CCC(=O)NC4=O)C5=O)CC3)CC2)c2cc(C(=O)Nc3cc4[nH]c([C@H]5CCCN5C)cc4cn3)ccc12 (stereo partly drawn) [Example 69, 1-(1-((1-(2-(2,6-dioxopiperidin-3-yl)-6-fluoro-1,3-dioxoisoindolin-5-yl)piperidin-4-yl)methyl)piperidin-4-yl)-3-methyl-N-(2-((R)-1-methylpyrrolidin-2-yl)-1H-pyrrolo[3,2-c]pyridin-6-yl)-1H-indazole-6-carboxamide]",IC50,[1],< 0.1 µM
same,MLLT1% Degradation @ 0.01 μM,[2],A (Category A: A≥75% degradation)
same,MLLT1% Degradation @ 0.1 μM,[2],A (Category A: A≥75% degradation)
same,MLLT1% Degradation @ 1 μM,[2],A (Category A: A≥75% degradation)
Cc1nn(CCCCCCCC=C(Cl)c2ccc3c(c2)n(C)c(=O)n3C2CCC(=O)NC2=O)c2cc(C(=O)Nc3cc4[nH]c([C@H]5CCCN5C)cc4cn3)ccc12 (mixture of isomers) [Example 40],IC50,[1],< 0.1 µM
same,MLLT1% Degradation @ 0.01 μM,[2],A (Category A: A≥75% degradation)
same,MLLT1% Degradation @ 0.1 μM,[2],A (Category A: A≥75% degradation)
same,MLLT1% Degradation @ 1 μM,[2],A (Category A: A≥75% degradation)
"Cc1nn(CCCCCCCC#Cc2cccc(C3CCC(=O)NC3=O)c2F)c2cc(C(=O)Nc3cc4[nH]c([C@H]5CCCN5C)cc4cn3)ccc12 (stereo partly drawn) [Example 61, 1-(9-(3-(2,6-dioxopiperidin-3-yl)-2-fluorophenyl)non-8-yn-1-yl)-3-methyl-N-(2-((R)-1-methylpyrrolidin-2-yl)-1H-pyrrolo [3,2-c]pyridin-6-yl)-1H-indazole-6-carboxamide]",IC50,[1],< 0.1 µM
same,MLLT1% Degradation @ 0.01 μM,[2],C (Category C: 25%≤C<50% degradation)
same,MLLT1% Degradation @ 0.1 μM,[2],A (Category A: A≥75% degradation)
same,MLLT1% Degradation @ 1 μM,[2],A (Category A: A≥75% degradation)
"Cc1nn(CCCCCCCC#Cc2ccc(F)c3c2CN(C2CCC(=O)NC2=O)C3=O)c2cc(C(=O)Nc3cc4[nH]c([C@H]5CCCN5C)c(Cl)c4cn3)ccc12 (stereo partly drawn) [Example 67, N-(3-chloro-2-((R)-1-methylpyrrolidin-2-yl)-1H-pyrrolo[3,2-c]pyridin-6-yl)-1-(9-(2-(2,6-dioxopiperidin-3-yl)-7-fluoro-1-oxoisoindolin-4-yl)non-8-yn-1-yl)-3-methyl-1H-indazole-6-carboxamide]",IC50,[1],< 0.1 µM
same,MLLT1% Degradation @ 0.01 μM,[2],A (Category A: A≥75% degradation)
same,MLLT1% Degradation @ 0.1 μM,[2],A (Category A: A≥75% degradation)
same,MLLT1% Degradation @ 1 μM,[2],A (Category A: A≥75% degradation)
"Cc1nn(CCCCCCCC#Cc2cccc3c2CN([C@@H]2CCC(=O)NC2=O)C3=O)c2cc(C(=O)Nc3cc4[nH]c([C@H]5CCCN5C)c(Cl)c4cn3)ccc12 (relative stereo) [Example 101, N-(3-chloro-2-((R)-1-methylpyrrolidin-2-yl)-1H-pyrrolo[3,2-c]pyridin-6-yl)-1-(9-(2-((rel-R)-2,6-dioxopiperidin-3-yl)-1-oxoisoindolin-4-yl)non-8-yn-1-yl)-3-methyl-1H-indazole-6-carboxamide]",IC50,[1],< 0.1 µM
"Cc1nn(CCCCCCCCNc2cccc3c2C(=O)N(C2CCC(=O)NC2=O)C3=O)c2cc(C(=O)Nc3cc4[nH]c(C5CCCN5C)cc4cn3)ccc12 (racemic) [Example 2, rac-1-(8-{[2-(2,6-dioxopiperidin-3-yl)-1,3-dioxoisoindol-4-yl]amino}octyl)-3-methyl-N-[2-(1-methylpyrrolidin-2-yl)-1H-pyrrolo[3,2-c]pyridin-6-yl]indazole-6-carboxamide]",IC50,[3],< 0.1 µM
same,MLLT1% Degradation @ 0.01 μM,[2],B (Category B: 50%≤B<75% degradation)
same,MLLT1% Degradation @ 0.1 μM,[2],A (Category A: A≥75% degradation)
same,MLLT1% Degradation @ 1 μM,[2],A (Category A: A≥75% degradation)
"Cc1nn(CCCCCCC#Cc2cccc3c2CN(C2CCC(=O)NC2=O)C3=O)c2cc(C(=O)Nc3cc4[nH]c([C@H]5CCCN5C)cc4cn3)ccc12 (stereo partly drawn) [Example 45, 1-(8-(2-(2,6-dioxopiperidin-3-yl)-1-oxoisoindolin-4-yl)oct-7-yn-1-yl)-3-methyl-N-(2-((R)-1-methylpyrrolidin-2-yl)-1H-pyrrolo[3,2-c]pyridin-6-yl)-1H-indazole-6-carboxamide]",IC50,[3],< 0.1 µM
same,MLLT1% Degradation @ 0.01 μM,[2],A (Category A: A≥75% degradation)
same,MLLT1% Degradation @ 0.1 μM,[2],A (Category A: A≥75% degradation)
same,MLLT1% Degradation @ 1 μM,[2],A (Category A: A≥75% degradation)
"Cc1nn(CCCCCC#Cc2cccc3c2C(=O)N(C2CCC(=O)NC2=O)C3=O)c2cc(C(=O)Nc3cc4[nH]c([C@H]5CCCN5C)cc4cn3)ccc12 (stereo partly drawn) [Example 33, 1-(7-(2-(2,6-dioxopiperidin-3-yl)-1,3-dioxoisoindolin-4-yl)hept-6-yn-1-yl)-3-methyl-N-(2-((R)-1-methylpyrrolidin-2-yl)-1H-pyrrolo[3,2-c]pyridin-6-yl)-1H-indazole-6-carboxamide]",IC50,[3],< 0.1 µM
same,MLLT1% Degradation @ 0.01 μM,[2],B (Category B: 50%≤B<75% degradation)
same,MLLT1% Degradation @ 0.1 μM,[2],B (Category B: 50%≤B<75% degradation)
same,MLLT1% Degradation @ 1 μM,[2],A (Category A: A≥75% degradation)
"Cc1nn(CCCCCN2CCN(c3cc4c(cc3F)C(=O)N(C3CCC(=O)NC3=O)C4=O)CC2)c2cc(C(=O)Nc3cc4[nH]c([C@H]5CCCN5C)cc4cn3)ccc12 (stereo partly drawn) [Example 23, 1-(5-(4-(2-(2,6-dioxopiperidin-3-yl)-6-fluoro-1,3-dioxoisoindolin-5-yl)piperazin-1-yl)pentyl)-3-methyl-N-(2-((R)-1-methylpyrrolidin-2-yl)-1H-pyrrolo[3,2-c]pyridin-6-yl)-1H-indazole-6-carboxamide]",IC50,[3],< 0.1 µM
same,MLLT1% Degradation @ 0.01 μM,[2],A (Category A: A≥75% degradation)
same,MLLT1% Degradation @ 0.1 μM,[2],A (Category A: A≥75% degradation)
same,MLLT1% Degradation @ 1 μM,[2],A (Category A: A≥75% degradation)
"CCN1CCC[C@@H]1c1cc2cnc(NC(=O)c3ccc4c(C)nn(CCCCCCCC#Cc5cccc6c5CN(C5CCC(=O)NC5=O)C6=O)c4c3)cc2[nH]1 (stereo partly drawn) [Example 48, 1-(9-(2-(2,6-dioxopiperidin-3-yl)-1-oxoisoindolin-4-yl)non-8-yn-1-yl)-N-(2-((R)-1-ethylpyrrolidin-2-yl)-1H-pyrrolo[3,2-c]pyridin-6-yl)-3-methyl-1H-indazole-6-carboxamide]",IC50,[3],< 0.1 µM
same,MLLT1% Degradation @ 0.01 μM,[2],C (Category C: 25%≤C<50% degradation)
same,MLLT1% Degradation @ 0.1 μM,[2],B (Category B: 50%≤B<75% degradation)
same,MLLT1% Degradation @ 1 μM,[2],A (Category A: A≥75% degradation)
"Cc1nn(CCCCCCCC#Cc2cccc3c2CN([C@H]2CCC(=O)NC2=O)C3=O)c2cc(C(=O)Nc3cc4[nH]c([C@H]5CCCN5C)c(Cl)c4cn3)ccc12 (relative stereo) [Example 100, N-(3-chloro-2-((R)-1-methylpyrrolidin-2-yl)-1H-pyrrolo[3,2-c]pyridin-6-yl)-1-(9-(2-((rel-S)-2,6-dioxopiperidin-3-yl)-1-oxoisoindolin-4-yl)non-8-yn-1-yl)-3-methyl-1H-indazole-6-carboxamide]",IC50,[1],< 0.1 µM

# — patent publication US20260199484A1, “PROTAC DEGRADERS OF MLLT1 AND/OR MLLT3” (DARK BLUE THERAPEUTICS LTD, priority 2024, published 2026)
